Measurements from paper PMC8244813 (Nutrition and cancer, 2019).
Read-outs that look alike come from different tables or passages of the source.

Columns and labels:
[1] = system: AMACR mRNA in LNCaP cells; conditions: 6 and 24 h after a single SFN treatment; cited from earlier work
[2] = system: AMACR expression in colon cancer Caco-2 cells; conditions: SFN treatment; cited from earlier work
[3] = SFN metabolites in plasma by LC-MS/MS; conditions: BSE group n=42; for Plasma level of individual SFN metabolite, postintervention, Mean (SE): after 200 μmol SFN daily, 4–8 wk; for Plasma level of individual SFN metabolite, preintervention, Mean (SE): baseline before supplementation
[4] = in vivo

Structure (SMILES) | Plasma level of individual SFN metabolite, change (post minus pre), Mean (SE) [3] | Plasma level of individual SFN metabolite, postintervention, Mean (SE) [3] | Plasma level of individual SFN metabolite, preintervention, Mean (SE) [3] | Plasma level of individual SFN metabolite, change (post minus pre), Mean (SE) [4] | Plasma level of individual SFN metabolite, preintervention, Mean (SE) [4] | AMACR mRNA levels in LNCaP cells [1] | AMACR expression in colon cancer Caco-2 cells [2]
C[S+]([O-])CCCCN=C=S (stereo not shown) [SFN, sulforaphane] | 0.0001 (0.0001) μM | 0.0001 (0.0001) μM | 0.00 (0.00) μM | – | – | significantly downregulated | significantly decrease AMACR expression
C[S+]([O-])CCCCNC(=S)SCC(N)C(=O)NCC(=O)O (stereo not shown) [SFN-CG, SFN-cysteinylglycine] | – | – | – | 0.04 (0.01) μM | 0.00 (0.00) μM | – | –
C[S+]([O-])CCCCNC(=S)SCC(N)C(=O)O (stereo not shown) [SFN-Cys, SFN-cysteine] | 0.02 (0.01) μM | 0.02 (0.01) μM | 0.00 (0.00) μM | – | – | – | –

More lines, main results first:

Plasma level of individual SFN metabolite, change (post minus pre), Mean (SE) [3] | Plasma level of individual SFN metabolite, postintervention, Mean (SE) [3] | Plasma level of individual SFN metabolite, preintervention, Mean (SE) [3] | Plasma level of individual SFN metabolite, change (post minus pre), Mean (SE) [4] | Plasma level of individual SFN metabolite, preintervention, Mean (SE) [4] | Structure (SMILES) | AMACR mRNA levels in LNCaP cells [1] | AMACR expression in colon cancer Caco-2 cells [2]
0.03 (0.01) μM | 0.03 (0.01) μM | 0.00 (0.00) μM | – | – | CC(=O)N[C@@H](CSC(=S)NCCCC[S+](C)[O-])C(=O)O (stereo partly drawn) [SFN-NAC, SFN N-acetyl-L-cysteine] | – | –
0.03 (0.01) μM | 0.03 (0.01) μM | 0.00 (0.00) μM | – | – | C[S+]([O-])CCCCNC(=S)SC[C@H](NC(=O)CC[C@H](N)C(=O)O)C(=O)NCC(=O)O (stereo partly shown) [SFN-GSH, SFN-glutathione] | – | –
